Measurements published in publication PMC7588595, “Small-molecule active pharmaceutical ingredients of approved cancer therapeutics inhibit human aspartate/asparagine-β-hydroxylase” (Bioorganic & Medicinal Chemistry, 2020).
Structures can show the parent of a compound that is named as a salt. Where two headings read alike, the source gives them in different places.

Target: T1, human AspH (His6-AspH315–758) (Homo sapiens, UniProt Q12797)
T1 construct: N-Terminally His6-tagged human AspH315–758 (His6-AspH315–758) was produced in Escherichia coli BL21 (DE3) cells; made in house; host or cells: Escherichia coli BL21 (DE3), pET-28a(+) vector
T1 sequence (Q12797 315-758): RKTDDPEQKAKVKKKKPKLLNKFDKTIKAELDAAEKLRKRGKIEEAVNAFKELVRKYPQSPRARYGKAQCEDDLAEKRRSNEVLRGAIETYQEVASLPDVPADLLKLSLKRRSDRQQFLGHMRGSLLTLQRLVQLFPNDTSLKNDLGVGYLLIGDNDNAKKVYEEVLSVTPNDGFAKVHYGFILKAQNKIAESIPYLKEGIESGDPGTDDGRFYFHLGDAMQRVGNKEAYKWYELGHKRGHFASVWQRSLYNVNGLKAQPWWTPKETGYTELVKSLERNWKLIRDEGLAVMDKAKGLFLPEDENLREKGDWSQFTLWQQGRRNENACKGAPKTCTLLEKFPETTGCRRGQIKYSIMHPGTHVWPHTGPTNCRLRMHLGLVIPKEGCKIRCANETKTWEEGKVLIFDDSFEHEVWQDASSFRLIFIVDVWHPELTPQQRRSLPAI
Test: SPE-MS AspH inhibition assay (hFX-CP101-119 substrate hydroxylation)
Type: biochemical
Details: for Plate 1 (% inhibition): 384-well Plate 1

[1] = AspH-inhibitor screening, 384-well Plate 1, substrate conversion
[2] = AspH-inhibitor screening, Plate 1-duplicate
[3] = AspH-inhibitor screening, Plate 1-duplicate, substrate conversion

Compound	Plate 1 (% inhibition) (AspH-inhibitor screening)	Plate 1 (% conversion) [1]	Plate 1-duplicate (% inhibition) [2]	Plate 1-duplicate (% conversion) [3]	Plate 1 (% conversion)	Plate 1-duplicate (% conversion)
C[C@@H](Oc1cc(-c2cnn(C3CCNCC3)c2)cnc1N)c1c(Cl)ccc(F)c1Cl [PF-2341066 (Crizotinib)]	-4.19%	51.68%	-4.98%	54.51%		
COc1ccc(-c2cc3c(C)nc(N)nc3n([C@H]3CC[C@H](OCCO)CC3)c2=O)cn1 [PF-04691502]	-6.58%	52.79%	-5.13%	54.58%		
CCc1cncnc1N1CCN(Cc2nc3ccc(C(F)(F)F)cc3[nH]2)CC1 [PF-04708671]	-5.43%	52.26%	-7.38%	55.70%		
CO[C@@H](C(=O)N1Cc2[nH]nc(NC(=O)c3ccc(N4CCN(C)CC4)cc3)c2C1)c1ccccc1 [PHA-739358 (Danusertib)]	4.40%	47.72%	1.12%	51.48%		
Cc1ccc([N+](=O)[O-])cc1S(=O)(=O)N(C)/N=C/c1cnc2ccc(Br)cn12.Cl [PIK-75 HCl]	-11.59%	55.10%	-0.06%	52.07%		
CO[C@@H]1[C@H](N(C)C(=O)c2ccccc2)C[C@H]2O[C@]1(C)n1c3ccccc3c3c4c(c5c6ccccc6n2c5c31)C(=O)NC4 [PKC412_Midostaurin]		7.13%		6.90%		
CCCS(=O)(=O)Nc1ccc(F)c(C(=O)c2c[nH]c3ncc(-c4ccc(Cl)cc4)cc23)c1F [PLX4032_Vemurafenib]	39.76%	31.39%	46.15%	29.15%		
CC(=O)O[C@H]1C(=O)[C@@]2(C)[C@H]([C@H](OC(=O)c3ccccc3)[C@]3(O)C[C@H](OC(=O)[C@H](O)[C@@H](NC(=O)c4ccccc4)c4ccccc4)C(C)=C1C3(C)C)[C@]1(OC(C)=O)CO[C@@H]1C[C@@H]2O [Paclitaxel]	6.60%	46.70%	-2.08%	53.08%		
CC(=O)c1c(C)c2cnc(Nc3ccc(N4CCNCC4)cn3)nc2n(C2CCCC2)c1=O [Palbociclib]	13.54%	43.50%	4.20%	49.96%		
Cc1[nH]c2ccccc2c1CCNCc1ccc(/C=C/C(=O)NO)cc1 [Panobinostat]	44.02%	29.42%	37.62%	33.38%		
Cc1ccc(Nc2nccc(N(C)c3ccc4c(C)n(C)nc4c3)n2)cc1S(N)(=O)=O.Cl [Pazopanib hydrochloride]	-0.37%	49.92%	-28.79%	66.32%		
Cc1ccc(Nc2nccc(N(C)c3ccc4c(C)n(C)nc4c3)n2)cc1S(N)(=O)=O [Pazopanib]	4.18%	47.82%	-21.51%	62.71%		
Nc1nc2[nH]cc(CCc3ccc(C(=O)N[C@@H](CCC(=O)[O-])C(=O)[O-])cc3)c2c(=O)[nH]1.O.O.O.O.O.O.O.[Na+].[Na+] [Pemetrexed, Disodium salt, Heptahydrate]	6.49%	46.75%	6.63%	48.75%		
Nc1nc2[nH]cc(CCc3ccc(C(=O)N[C@@H](CCC(=O)O)C(=O)O)cc3)c2c(=O)[nH]1 [Pemetrexed]	17.80%	41.53%	10.26%	46.95%		
OC[C@H]1O[C@@H](n2cnc3c2NC=NC[C@H]3O)C[C@@H]1O [Pentostatin]	10.69%	44.81%	8.07%	48.04%		
CCCCCCCCCCCCCCCCCCOP(=O)([O-])OC1CC[N+](C)(C)CC1 [Perifosine aq/PBS]	-1.17%	50.29%	-2.15%	53.11%		
CC[C@@H]1C(=O)OC[C@@H]1Cc1cncn1C [Pilocarpine]	3.20%	48.27%	17.17%	43.53%		

Compound	Plate 1 (% inhibition) (AspH-inhibitor screening)	Plate 1 (% conversion) [1]	Plate 1-duplicate (% inhibition) [2]	Plate 1-duplicate (% conversion) [3]	Plate 1 (% conversion)	Plate 1-duplicate (% conversion)
O=C(CCBr)N1CCN(C(=O)CCBr)CC1 [Pipobroman]	11.08%	44.63%	4.27%	49.93%		
c1cc(CN2CCCNCCNCCCNCC2)ccc1CN1CCCNCCNCCCNCC1 [Plerixafor]	9.96%	45.15%	5.23%	49.45%		
Nc1cccc2c1C(=O)N(C1CCC(=O)NC1=O)C2=O (stereo not shown) [Pomalidomide]	0.86%	49.35%	1.01%	51.54%		
C#CCC(Cc1cnc2nc(N)nc(N)c2n1)c1ccc(C(=O)N[C@@H](CCC(=O)O)C(=O)O)cc1 (stereo partly shown) [Pralatrexate]	13.78%	43.39%	14.13%	45.03%		
CC[C@H](C)C(=O)O[C@H]1C[C@H](O)C=C2C=C[C@H](C)[C@H](CC[C@@H](O)C[C@@H](O)CC(=O)O)[C@H]21 [Pravastatin]	12.19%	44.12%	8.98%	47.59%		
C[C@]12C=CC(=O)C=C1CC[C@@H]1[C@@H]2[C@@H](O)C[C@@]2(C)[C@H]1CC[C@]2(O)C(=O)CO [Prednisolone]	19.12%		12.03%		40.92%	46.08%
C[C@]12C=CC(=O)C=C1CC[C@@H]1[C@@H]2C(=O)C[C@@]2(C)[C@H]1CC[C@]2(O)C(=O)CO [Prednisone]	-2.32%	50.82%	2.01%	51.04%		
COCC1(CO)C(=O)C2CCN1CC2 (stereo not shown) [Prima-1 Met]	3.70%	48.04%	3.39%	50.36%		
CNNCc1ccc(C(=O)NC(C)C)cc1 [Procarbazine hydrochloride]	0.24%	49.64%	5.52%	49.30%		
CCN(CC)CCCC(C)Nc1c2ccc(Cl)cc2nc2ccc(OC)cc12 (stereo not shown) [Quinacrine HCl]	11.37%	44.50%	8.52%	47.81%		
COc1cc(Nc2ncc(F)c(Nc3ccc4c(n3)NC(=O)C(C)(C)O4)n2)cc(OC)c1OC [R406_Tamatinib]	11.05%	44.65%	0.72%	51.68%		
Cn1c(Nc2ccc(C(F)(F)F)cc2)nc2cc(Oc3ccnc(-c4ncc(C(F)(F)F)[nH]4)c3)ccc21 [RAF265]	38.69%	31.88%	34.01%	35.17%		
CNC(=O)c1ccc(N2C(=S)N(c3ccc(C#N)c(C(F)(F)F)c3)C(=O)C23CCC3)cc1F [RD162]	-1.12%	50.27%	-2.20%	53.13%		
COc1cc(F)c(F)c(Nc2ccc(I)cc2F)c1NS(=O)(=O)C1(C[C@H](O)CO)CC1 [RDEA119_Refametinib]	2.93%	48.40%	4.05%	50.03%		
O=C(c1ccc(OCCN2CCCCC2)cc1)c1c(-c2ccc(O)cc2)sc2cc(O)ccc12 [Raloxifene]	17.35%	41.74%	14.45%	44.88%		
CO[C@H]1C[C@@H]2CC[C@@H](C)[C@@](O)(O2)C(=O)C(=O)N2CCCC[C@H]2C(=O)O[C@H]([C@H](C)C[C@@H]2CC[C@@H](O)[C@H](OC)C2)CC(=O)[C@H](C)/C=C(\C)[C@@H](O)[C@@H](OC)C(=O)[C@H](C)C[C@H](C)/C=C/C=C/C=C/1C [Rapamycin (sirolimus)]	-16.43%	57.34%	-26.38%	65.13%		
